Tests used:
GIVA cPLA2 = molecular target: T1, GIVA cPLA2 (Homo sapiens, UniProt P47712); experiment: mixed-micelle PLA2 activity assay; assay type: biochemical
T1 sequence (P47712 1-749): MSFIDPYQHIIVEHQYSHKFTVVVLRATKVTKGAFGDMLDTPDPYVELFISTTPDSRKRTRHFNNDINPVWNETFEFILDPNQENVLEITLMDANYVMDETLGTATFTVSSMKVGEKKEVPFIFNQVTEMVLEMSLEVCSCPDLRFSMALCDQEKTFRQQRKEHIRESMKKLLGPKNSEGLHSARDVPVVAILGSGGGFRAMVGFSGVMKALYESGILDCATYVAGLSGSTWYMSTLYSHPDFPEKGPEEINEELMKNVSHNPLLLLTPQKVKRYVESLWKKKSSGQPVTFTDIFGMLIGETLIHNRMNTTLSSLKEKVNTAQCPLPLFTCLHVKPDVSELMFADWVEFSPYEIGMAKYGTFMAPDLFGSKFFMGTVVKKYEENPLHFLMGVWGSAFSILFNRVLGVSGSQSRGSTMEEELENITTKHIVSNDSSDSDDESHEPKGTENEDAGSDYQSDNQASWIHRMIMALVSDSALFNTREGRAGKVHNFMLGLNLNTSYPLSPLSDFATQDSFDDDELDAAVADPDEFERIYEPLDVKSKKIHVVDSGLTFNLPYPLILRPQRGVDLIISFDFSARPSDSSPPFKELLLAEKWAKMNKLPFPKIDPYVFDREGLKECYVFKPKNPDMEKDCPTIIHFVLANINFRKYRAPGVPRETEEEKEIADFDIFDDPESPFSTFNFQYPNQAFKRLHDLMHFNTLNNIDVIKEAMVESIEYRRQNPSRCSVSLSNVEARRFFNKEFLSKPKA

GVIA iPLA2 = molecular target: T2, GVIA iPLA2 (Homo sapiens, UniProt O60733); experiment: in vitro GVIA iPLA2 activity assay, XI; assay type: biochemical
T2 sequence (O60733 1-806): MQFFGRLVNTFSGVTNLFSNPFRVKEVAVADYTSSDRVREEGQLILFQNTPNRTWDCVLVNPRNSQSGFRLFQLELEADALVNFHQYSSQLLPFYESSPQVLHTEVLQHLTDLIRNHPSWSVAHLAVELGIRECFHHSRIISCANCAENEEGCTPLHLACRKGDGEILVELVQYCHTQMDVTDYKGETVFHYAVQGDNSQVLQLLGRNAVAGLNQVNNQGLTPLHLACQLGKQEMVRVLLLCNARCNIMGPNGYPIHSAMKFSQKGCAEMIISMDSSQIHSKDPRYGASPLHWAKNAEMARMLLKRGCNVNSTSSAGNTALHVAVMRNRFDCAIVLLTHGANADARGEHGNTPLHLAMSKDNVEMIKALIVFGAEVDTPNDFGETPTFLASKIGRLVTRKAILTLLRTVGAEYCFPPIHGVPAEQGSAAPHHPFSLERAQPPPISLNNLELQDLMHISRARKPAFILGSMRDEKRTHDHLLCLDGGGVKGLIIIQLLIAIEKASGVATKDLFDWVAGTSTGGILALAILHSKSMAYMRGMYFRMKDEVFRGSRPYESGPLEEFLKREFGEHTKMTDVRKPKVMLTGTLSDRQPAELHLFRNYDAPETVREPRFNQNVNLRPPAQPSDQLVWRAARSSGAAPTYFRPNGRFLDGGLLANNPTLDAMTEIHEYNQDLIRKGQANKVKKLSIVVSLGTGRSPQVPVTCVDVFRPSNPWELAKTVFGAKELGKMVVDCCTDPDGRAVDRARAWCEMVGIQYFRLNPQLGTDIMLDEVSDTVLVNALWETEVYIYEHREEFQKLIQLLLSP

Row | SMILES | GIVA cPLA2 (GIVA cPLA2) | GVIA iPLA2 (GVIA iPLA2)
1 | CCCCCCCCCCCCCCC(=O)C(=O)NCCCNS(=O)(=O)c1ccc(C)cc1 [5a, N-(3-(4-Methylphenylsulfonamido)propyl)-2-oxohexadecanamide] | 0.055 ± 0.006 mole fraction (XI(50)) | 0.076 ± 0.020 mole fraction (XI(50))
2 | CCCCCCCCCCCCCCC(=O)C(=O)NCCCC(=O)N(C)S(=O)(=O)c1ccc(C)cc1 [compound 20, N-[4-(N,4-Dimethylphenylsulfonamido)-4-oxobutyl)-2-oxohexadecanamide] | 0.033 ± 0.018 mole fraction (XI(50)) | –
3 | CCCCCCCCCCCCCCC(=O)C(=O)N[C@@H](CCCC)CCCNS(C)(=O)=O [14a, (S)-N-[1-(Methylsulfonamido)octan-4-yl]-2-oxohexadecanamide] | 0.029 ± 0.019 mole fraction (XI(50)) | 0.060 ± 0.037 mole fraction (XI(50))
4 | CCCCCCCCCCCCCCC(=O)C(=O)N[C@@H](CCCC)CCCNS(=O)(=O)c1ccc(C)cc1 [14b, (S)-N-[1-(4-Methylphenylsulfonamido)octan-4-yl]-2-oxohexadecanamide] | 0.033 ± 0.018 mole fraction (XI(50)) | –
